Source: ChEMBL document CHEMBL4699661, “Synthesis and Biological Characterization of Cyclic Disulfide-Containing Peptide Analogs of the Multifunctional Opioid/Neuropeptide FF Receptor Agonists That Produce Long-Lasting and Nontolerant Antinociception” (J Med Chem, 2020)
Calls of active or inactive are those of the source. The calls are words filed in the database; no cut-off is given here.

Legend:
[1] = molecular target: T1, Delta-type opioid receptor (Homo sapiens, UniProt P41143); assay: Agonist activity at delta opioid receptor (unknown origin) expressed in HEK293-A cells assessed as inhibition of forskolin-stimulated cAMP accumulation incubated for 30 mins by competition PKA binding assay relative to control; assay type: functional, cell-based; details: filed as agonist
[2] = Induction of constipation in sc dosed Kunming mouse assessed as inhibition of gastrointestinal motility by charcoal based gastrointestinal motility test; assay type: organism-based; details: in vivo
[3] = system: Mus musculus; assay: Analgesic activity in icv dosed Kunming mouse by radiant heat tail flick test; assay type: functional
[4] = molecular target: T1, Delta-type opioid receptor; assay: Agonist activity at delta opioid receptor (unknown origin) expressed in HEK293-A cells assessed as inhibition of forskolin-stimulated cAMP accumulation incubated for 30 mins by competition PKA binding assay; assay type: functional, cell-based
[5] = molecular target: T2, Neuropeptide FF receptor 1 (Homo sapiens, UniProt Q9GZQ6); assay: Agonist activity at NPFFR1 (unknown origin) expressed in HEK293-A cells assessed as inhibition of forskolin-stimulated cAMP accumulation incubated for 30 mins by competition PKA binding assay; assay type: functional, cell-based
[6] = molecular target: Mu-type opioid receptor (Homo sapiens, UniProt P35372); assay: Agonist activity at mu opioid receptor (unknown origin) expressed in HEK293-A cells assessed as inhibition of forskolin-stimulated cAMP accumulation incubated for 30 mins by competition PKA binding assay; assay type: functional, cell-based
[7] = molecular target: T3, Neuropeptide FF receptor 2 (Homo sapiens, UniProt Q9Y5X5); assay: Agonist activity at NPFFR2 (unknown origin) expressed in HEK293-A cells assessed as inhibition of forskolin-stimulated cAMP accumulation incubated for 30 mins by competition PKA binding assay; assay type: functional, cell-based
[8] = molecular target: T3, Neuropeptide FF receptor 2; assay: Agonist activity at NPFFR2 (unknown origin) expressed in HEK293-A cells assessed as inhibition of forskolin-stimulated cAMP accumulation incubated for 30 mins by competition PKA binding assay relative to control; assay type: functional, cell-based; details: filed as agonist
[9] = Half life in 100% mouse plasma at 0.01 mM by RP-HPLC analysis; assay type: ADME, cell-free
[10] = system: Mus musculus; assay: Analgesic activity in Kunming mouse at 0.09 umol/kg, sc by radiant heat tail flick test; assay type: functional; details: dose 0.09 µmol/kg
[11] = system: Mus musculus; assay: Analgesic activity in icv dosed Kunming mouse assessed as time duration during which supraspinal antinociception lasted by radiant heat tail flick test; assay type: functional
[12] = Toxicity in Kunming mouse assessed as increase in total travelled distance at 0.09 umol/kg, sc by open field assay; assay type: organism-based; details: in vivo, dose 0.09 µmol/kg
[13] = Drug level in Kunming mouse plasma at 1 mg/kg, iv after 5 to 240 mins by LC-MS/MS analysis; assay type: ADME, organism-based; details: time 5-240 min
[14] = Safety index, ratio of ED50 for induction of constipation in sc dosed Kunming mouse to ED50 for analgesic activity in sc dosed Kunming mouse; assay type: organism-based; details: in vivo, read-out: Ratio ED50
[15] = system: Mus musculus; assay: Analgesic activity in sc dosed Kunming mouse by radiant heat tail flick test; assay type: functional
[16] = Toxicity in Kunming mouse assessed as increase in jumping counts after naloxone-injection at 0.09 umol/kg, sc by naloxone-precipitated withdrawal test; assay type: organism-based; details: in vivo, dose 0.09 µmol/kg
[17] = system: Mus musculus; assay: Analgesic activity in Kunming mouse at 30 pmol, icv by radiant heat tail flick test; assay type: functional
[18] = Ratio of drug level in brain to plasma in Kunming mouse brain at 1 mg/kg, iv after 5 to 240 mins by LC-MS/MS analysis; assay type: ADME, organism-based; details: time 5-240 min, read-out: BPR
[19] = Toxicity in Kunming mouse assessed as effect on motor coordination at 30 pmol, icv by rotarod test; details: in vivo, icv_or_intrathecal
[20] = system: Mus musculus; assay: Analgesic activity in sc dosed Kunming mouse assessed as time duration during which antinociception lasted by radiant heat tail flick test; assay type: functional
[21] = Toxicity in Kunming mouse assessed as effect on motor coordination at 0.09 umol/kg, sc by rotarod test; assay type: organism-based; details: in vivo, dose 0.09 µmol/kg
[22] = molecular target: T2, Neuropeptide FF receptor 1; assay: Agonist activity at NPFFR1 (unknown origin) expressed in HEK293-A cells assessed as inhibition of forskolin-stimulated cAMP accumulation incubated for 30 mins by competition PKA binding assay relative to control; assay type: functional, cell-based; details: filed as agonist
[23] = system: Mus musculus; assay: Analgesic activity in icv dosed Kunming mouse dosed once daily for 8 consecutive days by radiant heat tail flick test; assay type: functional, organism-based; details: time 8.0 day
[24] = Drug level in Kunming mouse brain at 1 mg/kg, iv after 5 to 240 mins by LC-MS/MS analysis; assay type: ADME, organism-based; details: in vivo, time 5-240 min
[25] = system: Mus musculus; assay: Analgesic activity in sc dosed Kunming mouse dosed once daily for 8 consecutive days by radiant heat tail flick test; assay type: functional, organism-based; details: time 8.0 day
[26] = Toxicity in Kunming mouse assessed as activation of reward circuits at 0.09 umol/kg, sc by CPP test; assay type: organism-based; details: in vivo, dose 0.09 µmol/kg
[27] = system: Mus musculus; assay: Analgesic activity in Kunming mouse assessed as increase in antinociceptive effect at 0.03 pmol, icv pre-treated with 10 nmol, icv NPFF receptor antagonist RF9 by radiant heat tail flick test; assay type: functional, organism-based
[28] = system: Mus musculus; assay: Analgesic activity in Kunming mouse at 30 pmol, icv pre-treated with 10 nmol, icv opioid receptor antagonist beta-funaltrexamine by radiant heat tail flick test; assay type: functional, organism-based
[29] = Half life in 15% mouse brain at 0.01 mM by RP-HPLC analysis; assay type: ADME, tissue-based
[30] = molecular target: Kappa-type opioid receptor (Homo sapiens, UniProt P41145); assay: Agonist activity at kappa opioid receptor (unknown origin) expressed in HEK293-A cells assessed as inhibition of forskolin-stimulated cAMP accumulation incubated for 30 mins by competition PKA binding assay; assay type: functional, cell-based; details: read-out: EC50

## N=C(N)NCCC[C@H](NC(=O)[C@H](CCC(N)=O)NC(=O)[C@@H]1CCCN1C(=O)[C@@H]1CSSC[C@@H](NC(=O)[C@@H](N)Cc2ccc(O)cc2)C(=O)NCC(=O)N[C@@H](Cc2ccccc2)C(=O)N1)C(=O)N[C@@H](Cc1ccccc1)C(N)=O
[1]
  Emax: 65.1%
[2]
  Activity: Dose-dependent effect
  ED50: 2.25 µmol/kg
[3]
  ED50: 0.014 pmol
[4]
  EC50: 174 nM
[5]
  EC50: 7.5 nM
[6]
  EC50: 43.1 nM
[7]
  EC50: 19.2 nM
[8]
  Emax: 53.3%
[9]
  half-life at 10 µM: 53.6 min
[10]
  Activity: 80%
[11]
  Activity: Dose-dependent effect
  Time: 3 h
[12]
  Activity: Non-Toxic
[13]
  AUC: 63 ng·h/mL
[14]
  selectivity ratio: 750
[15]
  Activity: Dose-dependent effect
  ED50: 0.003 µmol/kg
[16]
  Activity: Non-Toxic
[17]
  MPE: 90%
[18]
  Kp: 1.02
[19]
  Activity: Non-Toxic
[20]
  Time: 4 h
[21]
  Activity: Non-Toxic
[22]
  Emax: 75.9%
[23]
  Activity: Active
[24]
  Drug uptake: 3.87 µg·min/g
[25]
  Activity: Active
[26]
  Activity: Non-Toxic
[27]
  Activity: Active
[28]
  Activity: inactive
[29]
  half-life at 10 µM: 173 min
[30]
  EC50: 866 nM
